Target: human PCSK9 (Homo sapiens, UniProt Q8NBP7)
Assay: PCSK9 ligand binding TR-FRET assay (interference with binding of human PCSK9 to human LDLR)
Conditions: for Max % inhibition: PCSK9 FRET assay, efficacy (Amax), 100% = 1 uM unlabeled human PCSK9, 0% = DMSO; for IC50: TR-FRET, human PCSK9 Alexa Fluor 647 / human LDLR extracellular domain-Europium Kryptate, read-out: PCSK9 FRET Assay IC50
Method in brief: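 Threefold compound dilutions were pre-incubated 30 min with PCSK9, after which 4 nM Europium Kryptate-tagged human LDLR ectodomain was added for a further 2 h.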

human PCSK9, sequence (Q8NBP7 153-692): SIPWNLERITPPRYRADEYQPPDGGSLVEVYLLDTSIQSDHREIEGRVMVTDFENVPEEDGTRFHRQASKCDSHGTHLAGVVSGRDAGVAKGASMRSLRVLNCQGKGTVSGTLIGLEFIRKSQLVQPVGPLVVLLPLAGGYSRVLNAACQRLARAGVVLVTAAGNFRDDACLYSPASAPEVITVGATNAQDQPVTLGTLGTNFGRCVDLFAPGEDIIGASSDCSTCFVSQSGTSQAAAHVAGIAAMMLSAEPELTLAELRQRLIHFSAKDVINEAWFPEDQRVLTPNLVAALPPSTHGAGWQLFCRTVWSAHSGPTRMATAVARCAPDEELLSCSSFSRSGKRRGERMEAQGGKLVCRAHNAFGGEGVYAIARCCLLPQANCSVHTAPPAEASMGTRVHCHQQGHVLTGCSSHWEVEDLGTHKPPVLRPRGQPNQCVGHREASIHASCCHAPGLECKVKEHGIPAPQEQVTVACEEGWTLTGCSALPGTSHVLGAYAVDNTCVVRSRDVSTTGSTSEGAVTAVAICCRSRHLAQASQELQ
human PCSK9, sequence (Q8NBP7 31-152 partner limits assumed): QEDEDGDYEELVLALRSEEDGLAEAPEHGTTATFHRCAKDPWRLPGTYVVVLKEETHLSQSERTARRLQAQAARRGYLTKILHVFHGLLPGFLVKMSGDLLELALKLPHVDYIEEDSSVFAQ

Row | SMILES | Max % inhibition [%] | IC50 [nM]
1 | COC[C@@H]1NC(=O)[C@H](C)N(Cc2ccc(Cl)cc2Oc2ccc(-n3cnc(C(=O)NCCO)c3C)cc2)C(=O)C[C@@H](Cc2ccccc2)C(=O)N(C)[C@@H](C)CNC(=O)C[C@H](Cc2ccc(Cl)cc2)N(C)C1=O [Compound 188, 1-(4-(2-(((2S,5S,8S,13S,16R)-16-benzyl-8-(4-chlorobenzyl)-5-(methoxymethyl)-2,7,13,14-tetramethyl-3,6,10,15,18-pentaoxo-1,4,7,11,14-pentaazacyclooctadecan-1-yl)methyl)-5-chlorophenoxy)phenyl)-N-(2-hydroxyethyl)-5-methyl-1H-imidazole-4-carboxamide] | 75.17 | 16.2
2 | COC[C@@H]1NC(=O)[C@H](C)N(Cc2ccc(Cl)cc2Oc2ccc(-c3cnc(CN4CCCC4)n3C)cc2)C(=O)C[C@@H](Cc2ccccc2)C(=O)N(C)[C@@H](CCN(C)C)CNC(=O)C[C@H](Cc2ccc(Cl)cc2)N(C)C1=O [Compound 190, (2S,5S,8S,13S,16R)-16-benzyl-1-(4-chloro-2-(4-(1-methyl-2-(pyrrolidin-1-ylmethyl)-1H-imidazol-5-yl)phenoxy)benzyl)-8-(4-chlorobenzyl)-13-(2-(dimethylamino)ethyl)-5-(methoxymethyl)-2,7,14-trimethyl-1,4,7,11,14-pentaazacyclooctadecane-3,6,10,15,18-pentaone] | 100.60 | 32.6
3 | COC[C@@H]1NC(=O)[C@H](CCCNC(=O)OC(C)(C)C)N(Cc2ccc(Cl)cc2Oc2ccc(-c3cnc(CN4CCCC4)n3C)cc2)C(=O)C[C@@H](Cc2ccccc2)C(=O)N(C)[C@H]2CCCC[C@@H]2NC(=O)C[C@H](Cc2ccc(Cl)cc2)N(C)C1=O [Compound 191, tert-butyl (3-((4S,7S,10S,14R,16aS,20aS)-14-benzyl-11-(4-chloro-2-(4-(1-methyl-2-(pyrrolidin-1-ylmethyl)-1H-imidazol-5-yl)phenoxy)benzyl)-4-(4-chlorobenzyl)-7-(methoxymethyl)-5,16-dimethyl-2,6,9,12,15-pentaoxodocosahydrobenzo[l][1,4,7,11,14]pentaazacyclooctadecin-10-yl)propyl)carbamate] | 94.20 | 2.1
4 | C[C@@H]1C(=O)N[C@@H](CO)C(=O)N(C)[C@@H](Cc2ccc(Cl)cc2)CC(=O)N[C@H]2CCCC[C@@H]2N(C)C(=O)[C@H](Cc2ccccc2)CC(=O)N1Cc1ccc(Cl)cc1Oc1ccc(-c2cnc(CN(C)C)n2C)cc1 [Compound 194, (4S,7S,10R,14R,16aS,20aS)-14-benzyl-11-(4-chloro-2-(4-(2-((dimethylamino)methyl)-1-methyl-1H-imidazol-5-yl)phenoxy)benzyl)-4-(4-chlorobenzyl)-7-(hydroxymethyl)-5,10,16-trimethylhexadecahydrobenzo[l][1,4,7,11,14]pentaazacyclooctadecine-2,6,9,12,15(3H)-pentaone] | 96.92 | 5.5
5 | COC[C@@H]1NC(=O)[C@H](C)N(Cc2ccc(Cl)cc2Oc2ccc(-c3cnc(CN(C)C)n3C)cc2)C(=O)CCC(=O)N(C)[C@@H](C)CNC(=O)C[C@H](Cc2ccc(Cl)cc2)N(C)C1=O [Compound 195, (2S,5S,8S,13S)-1-(4-chloro-2-(4-(2-((dimethylamino)methyl)-1-methyl-1H-imidazol-5-yl)phenoxy)benzyl)-8-(4-chlorobenzyl)-5-(methoxymethyl)-2,7,13,14-tetramethyl-1,4,7,11,14-pentaazacyclooctadecane-3,6,10,15,18-pentaone] | 100.43 | 73.4
6 | COC[C@@H]1NC(=O)[C@H](C)N(Cc2c(Oc3ccc(-c4cnc(CN(C)C)n4C)cc3)cccc2OC(F)F)C(=O)CCC(=O)N(C)[C@H]2CCCC[C@@H]2NC(=O)C[C@H](Cc2ccc(Cl)cc2)N(C)C1=O [Compound 196, (4S,7S,10S,16aS,20aS)-4-(4-chlorobenzyl)-11-(2-(difluoromethoxy)-6-(4-(2-((dimethylamino)methyl)-1-methyl-1H-imidazol-5-yl)phenoxy)benzyl)-7-(methoxymethyl)-5,10,16-trimethylhexadecahydrobenzo[l][1,4,7,11,14]pentaazacyclooctadecine-2,6,9,12,15(3H)-pentaone] | 97.92 | 3
7 | COC[C@@H]1NC(=O)[C@H](C)N(Cc2ccc(F)cc2Oc2ccc(-c3cnc(CN(C)C)n3C)cc2)C(=O)C[C@@H](Cc2ccccc2)C(=O)N(C)[C@@H](C)CNC(=O)C[C@H](Cc2ccc(Cl)cc2)N(C)C1=O [Compound 199, (2S,5S,8S,13S,16R)-16-benzyl-8-(4-chlorobenzyl)-1-(2-(4-(2-((dimethylamino)methyl)-1-methyl-1H-imidazol-5-yl)phenoxy)-4-fluorobenzyl)-5-(methoxymethyl)-2,7,13,14-tetramethyl-1,4,7,11,14-pentaazacyclooctadecane-3,6,10,15,18-pentaone] | 100.29 | 24.8

Continued by falling IC50, values first:

Row | Max % inhibition [%] | IC50 [nM] | SMILES
8 | 97.97 | 107 | COC[C@@H]1NC(=O)[C@H](CCCN)N(Cc2ccc(Cl)cc2Oc2ccc(-c3cnc(CN(C)C)n3C)cc2)C(=O)C[C@@H](Cc2ccccc2)C(=O)N(C)[C@@H](C)CNC(=O)C[C@H](Cc2ccc(Cl)cc2)N(C)C1=O [Compound 192, (2S,5S,8S,13S,16R)-2-(3-aminopropyl)-16-benzyl-1-(4-chloro-2-(4-(2-((dimethylamino)methyl)-1-methyl-1H-imidazol-5-yl)phenoxy)benzyl)-8-(4-chlorobenzyl)-5-(methoxymethyl)-7,13,14-trimethyl-1,4,7,11,14-pentaazacyclooctadecane-3,6,10,15,18-pentaone]
9 | 72.51 | 17.4 | COC[C@@H]1NC(=O)[C@H](C)N(Cc2ccc(Cl)cc2Oc2ccc(-c3cnc(OC)n3C)cc2)C(=O)C[C@@H](Cc2ccccc2)C(=O)N(C)[C@@H](C)CNC(=O)C[C@H](Cc2ccc(Cl)cc2)N(C)C1=O [Compound 197, (2S,5S,8S,13S,16R)-16-benzyl-1-(4-chloro-2-(4-(2-methoxy-1-methyl-1H-imidazol-5-yl)phenoxy)benzyl)-8-(4-chlorobenzyl)-5-(methoxymethyl)-2,7,13,14-tetramethyl-1,4,7,11,14-pentaazacyclooctadecane-3,6,10,15,18-pentaone]
10 | 84.54 | 6.1 | C[C@@H]1CC(=O)N(Cc2ccc(Cl)cc2Oc2ccc(-c3cnc(CN(C)C)n3C)cc2)[C@@H](C)C(=O)N[C@@H](CO)C(=O)N(C)[C@@H](Cc2ccc(Cl)cc2)CC(=O)NC[C@H](C)N(C)C1=O [Compound 193, (2S,5S,8S,13S,16R)-1-(4-chloro-2-(4-(2-((dimethylamino)methyl)-1-methyl-1H-imidazol-5-yl)phenoxy)benzyl)-8-(4-chlorobenzyl)-5-(hydroxymethyl)-2,7,13,14,16-pentamethyl-1,4,7,11,14-pentaazacyclooctadecane-3,6,10,15,18-pentaone]
11 | 95.01 | 1.4 | COC[C@@H]1NC(=O)[C@H](C)N(Cc2ccc(Cl)cc2Oc2ccc(-c3cnc(CN4CC5(COC5)C4)n3C)cc2)C(=O)C[C@@H](Cc2ccccc2)C(=O)N(C)[C@@H](C)CNC(=O)C[C@H](Cc2ccc(Cl)cc2)N(C)C1=O [Compound 189, (2S,5S,8S,13S,16R)-1-(2-(4-(2-(2-oxa-6-azaspiro[3.3]heptan-6-ylmethyl)-1-methyl-1H-imidazol-5-yl)phenoxy)-4-chlorobenzyl)-16-benzyl-8-(4-chlorobenzyl)-5-(methoxymethyl)-2,7,13,14-tetramethyl-1,4,7,11,14-pentaazacyclooctadecane-3,6,10,15,18-pentaone]
12 | 94.30 | 1.3 | COC[C@@H]1NC(=O)[C@H](C)N(Cc2ccc(Cl)cc2Oc2ccc(-c3cnc(CN(C)C)n3C)cc2)C(=O)C[C@@H](Cc2ccccc2)C(=O)N(C)[C@H]2CCOC[C@@H]2NC(=O)C[C@H](Cc2ccc(Cl)cc2)N(C)C1=O [Compound 187, (4S,7S,10S,14R,16aS,20aR)-14-benzyl-11-(4-chloro-2-(4-(2-((dimethylamino)methyl)-1-methyl-1H-imidazol-5-yl)phenoxy)benzyl)-4-(4-chlorobenzyl)-7-(methoxymethyl)-5,10,16-trimethyltetradecahydro-1H-pyrano[3,4-l][1,4,7,11,14]pentaazacyclooctadecine-2,6,9,12,15(3H)-pentaone]
13 | 103.39 | 0.6 | COC[C@@H]1NC(=O)[C@H](C)N(Cc2ccc(Cl)cc2Oc2ccc(-c3cnc(CN(C)C)n3C)cc2)C(=O)C[C@@H](Cc2ccccc2)C(=O)N(C)[C@@H](C)[C@H](C)NC(=O)C[C@H](Cc2ccc(Cl)cc2)N(C)C1=O [Compound 186, (2S,5S,8S,12S,13S,16R)-16-benzyl-1-(4-chloro-2-(4-(2-((dimethylamino)methyl)-1-methyl-1H-imidazol-5-yl)phenoxy)benzyl)-8-(4-chlorobenzyl)-5-(methoxymethyl)-2,7,12,13,14-pentamethyl-1,4,7,11,14-pentaazacyclooctadecane-3,6,10,15,18-pentaone]
14 | 98.27 | 0.6 | COC[C@@H]1NC(=O)[C@H](C)N(Cc2ccc(Cl)cc2Oc2ccc(-c3cnc(CN4CCCC4)n3C)cc2)C(=O)C[C@@H](Cc2ccccc2)C(=O)N(C)[C@@H](C)[C@H](C)NC(=O)C[C@H](Cc2ccc(Cl)cc2)N(C)C1=O [Compound 198, (2S,5S,8S,12S,13S,16R)-16-benzyl-1-(4-chloro-2-(4-(1-methyl-2-(pyrrolidin-1-ylmethyl)-1H-imidazol-5-yl)phenoxy)benzyl)-8-(4-chlorobenzyl)-5-(methoxymethyl)-2,7,12,13,14-pentamethyl-1,4,7,11,14-pentaazacyclooctadecane-3,6,10,15,18-pentaone]

Source: US20230089867A1, “CYCLIC PENTAMER COMPOUNDS AS PROPROTEIN CONVERTASE SUBTILISIN/KEXIN TYPE 9 (PCSK9) INHIBITORS FOR THE TREATMENT OF METABOLIC DISORDER” (Novartis AG, priority 2018, published 2023)
